According to patent US10105552B2, “Formulations of histone deacetylase inhibitor and uses thereof” (Pharmacyclics LLC, priority 2009, dated 2018):

How the values were obtained:
[1] = Clinical trial PK of Compound 1 solution, oral and IV dosing; settings: human, in vivo, humans
Procedure: In clinical trials involving humans with cancer, Compound 1 in solution form was administered at 2 mg/kg as a single oral dose and as multiple 2-hour IV infusion doses.
Compound 1 appears to be preferentially absorbed in the intestines.

[2] = Phase 1 trial, safety/tolerability and response by oral dosing schedule; format: in vivo
Procedure: This is a Phase 1 dose-escalation study of the safety, pharmacokinetics, and pharmacodynamics of Compound 1, HCl administered orally in patients with advanced cancer.
In the Phase 1 dose escalation study, up to 7 cohorts will receive Compound 1, HCl orally at doses starting at 30 mg/m^2, approximately 4-6 hours apart, up to 90 mg/m^2, 2 or 3 times a day according to 3 different dosing schedules within 28 day cycle (5 days of dosing followed by 2 days of no dosing; 5 days of dosing followed by 9 days of no dosing; 7 days of dosing followed by 7 days of no dosing) until the maximum tolerated dose is reached.
The doses were given at the same time each day. […] The two doses were given at the same time each day, with the second dose being administered approximately 4 to 6 hours from the first dose.
In the event that a patient experiences a treatment-related decrease in platelets to <25,000 per mm^2, the severity of the thrombocytopenia may be ameliorated by dosing in cycles consisting 5 consecutive days of oral dosing followed by 9 consecutive days without dosing.

[3] = system: Neuroblastoma cell lines and patient-derived primary neuroblastoma cultures; test: Neuroblastoma cell viability, calcein AM assay; format: cell-based; settings: 48 hours treatment
Procedure: Neuroblastoma cell lines and patient-derived primary neuroblastoma cultures were treated with bortezomib, Compound 1 alone or a combination of both agents for 48 hours. Cells were also treated with HDAC inhibitors vorinostat, sodium butyrate, and valproic acid and viability was assessed by calcein AM assays. mRNA from treated cells was evaluated at 6 and 24 hours using U133+ mRNA expression arrays and Ingenuity analysis. Dichlorofluorescein (DCF) was used to measure reactive oxygen species (ROS). Cell viability assays were repeated in the presence of N-acetylcysteine (NAC). Western blot evaluated caspase-3 and PARP cleavage. Nude mice were injected with 10^7 SMS-KCNR cells subcutaneously and treated with daily doses of 0.5 mg/kg bortezomib, 12.5 mg/kg Compound 1, or a combination of the two agents. Tumors were measured and imaged twice per week.

tumor cell lines = test: Preclinical activity against tumor cell lines; format: cell-based; settings: many tumor cell lines
[4] = system: lung, colon, prostate, pancreatic and brain tumors; test: Preclinical mouse tumor models; format: in vivo
[5] = system: primary human tumors from patients with colon, ovarian, lung and many hematological cancers; test: Ex vivo activity in primary human tumors; format: cell-based
RAD51 = test: Pre-clinical models, DNA repair gene expression

Row | SMILES | bioavailability ([1]; 2 mg/kg, immediate release capsules or an oral solution) [%] | bioavailability ([1]; from AUC0-∞ oral vs IV, 2 mg/kg solution) [%] | therapeutic effect ([2]; immediate release capsule, 2 or 3 consecutive doses each 4 to 6 hours apart on dosing days) | incidence of Grade 4 thrombocytopenia (platelet count <25,000 per mm^2) ([2]; in vivo, po) | pharmacodynamic response ([2]; solid tumor and lymphoma patients, cycles of 7 days oral dosing then 7 days without dosing) | IC50 [3] [nM] | activity against tumor cell lines (tumor cell lines) | efficacy in mouse tumor models [4] | ex vivo activity in primary human tumors [5] | effect on RAD51 (and other DNA repair genes) (RAD51)
1 | CN(C)Cc1c(C(=O)NCCOc2ccc(C(=O)NO)cc2)oc2ccccc12 [Compound 1, N-hydroxy-4-{2-[3-(N,N-dimethylaminomethyl)benzofuran-2-ylcarbonylamino]ethoxy}-benzamide] | ~27 | ~27 | achieved | limited incidence | achieved | < 200 | active | efficacious | active | able to turn off RAD51
2 | CC(C)C[C@H](NC(=O)[C@H](Cc1ccccc1)NC(=O)c1cnccn1)B(O)O [bortezomib, reference compound] |  |  |  |  |  | < 50 |  |  |  | 
